Assays:
[1] = molecular target: T1, human αvβ6 integrin (Homo sapiens, UniProt P06756+P18564); test: LAP(TGF-β1)-αvβ6 competitive solid-phase ELISA binding assay; conditions: immobilized LAP, soluble integrin
T1 construct: using immobilized ECM protein and soluble integrin; purchased R&D Systems (Biotechne brand) 3817-AV
Procedure: (§1) The affinity and selectivity of the integrin peptide ligands were ascertained according to a modified method previously reported by some of us.[33],[47] The binding was determined in a competitive solid-phase binding assay using extracellular matrix proteins, soluble integrins, and pertinent integrin-specific antibodies in an enzyme-linked immunosorbent assay (ELISA).
A flat-bottom 96-well ELISA plate was coated overnight at 4 °C with 100 μL/well of 0.4 μg/mL LAP previously diluted in carbonate buffer (15 mM Na2CO3, 35 mM NaHCO3, pH 9.6). Afterward, each well was then washed three times with 200 μL of PBS-T buffer (137 mM NaCl, 2.7 mM KCl, 10 mM Na2HPO4, 2 mM KH2PO4, 0.01% Tween 20, pH 7.4) and blocked for 1 h at room temperature with 150 μL/well TSB buffer (20 mM Tris–HCl, 150 mM NaCl, 1 mM CaCl2, 1 mM MgCl2, 1 mM MnCl2, pH 7.5, 1% BSA). Then, each well was washed three times with 200 μL of PBS-T.
Equal volumes (50 μL) of the internal standard (or test compounds) were mixed with 0.5 μg/mL human integrin αvβ6 (50 μL) giving a final dilution series in TSB buffer of 0.00064–10 μM for the inhibitors and 0.25 μg/mL for integrin αvβ6. These solutions (100 μL/well) were added to the flat-bottom ELISA plate and incubated for 1 h at room temperature. The solutions were discarded from the wells, and the plate was washed three times with PBS-T buffer (3 × 200 μL). […] The solutions were discarded from the wells, and the plate was washed three times with PBS-T (3 × 200 μL). The binding assay was developed by adding 50 μL/well of the 3,3′,5,5′-tetramethylbenzidine (TMB) liquid substrate system and incubating for 1 min at room temperature. The reaction was stopped by adding 50 μL/well of 3 M H2SO4. The peroxidase product formation was detected by measuring the absorbance at […] using a plate reader (Tecan SpectraFLUOR plus, Männedorf, Switzerland). Each compound concentration was tested in duplicate, and the resulting inhibition curves were analyzed using OriginPro 7.5G software; the inflection point describes the IC50 value. Each plate contained a linear peptide ([…]) as the internal standard.[63]

[2] = molecular target: T2, human αvβ8 integrin (Homo sapiens, UniProt P06756+P26012); test: LAP(TGF-β1)-αvβ8 competitive solid-phase ELISA binding assay; conditions: competitive ELISA, immobilized LAP, soluble integrin
T2 construct: purchased R&D Systems (Biotechne brand) 4135-AV
Procedure: as §1
The experimental procedure is as described for the αvβ6 assay, except for the following modifications. The plates were coated, washed, and blocked as described above. Soluble integrin αvβ8 was mixed with an equal volume of serially diluted inhibitors resulting in a final integrin concentration of 0.25 μg/mL and 0.0032–10 μM for the inhibitors. The primary and secondary antibodies are the same as in the integrin αvβ6 assay. Visualization and analysis were performed as described above. Each plate contained a linear peptide ([…]) as the internal standard.[3]

[3] = test system: recombinant R8102 HSV-1 strain; test: Infection neutralization assay, 293T cells, R8102 HSV-1, β-galactosidase readout; assay type: cell-based; conditions: increasing concentrations, 1 h prior to infection and 90 min during attachment
Source text: The binding of HSV-1 gH/gL to either αvβ6 or αvβ8 results in the dissociation of gL from the heterodimer, which, in turn, can favor HSV entry into cells.[27] […] R1.302, a nectin1-neutralizing mAb, was used as a positive control. In the first set of experiments, 293T cells, expressing both the αvβ6 and αvβ8 integrins, were alternatively exposed to increasing concentrations of the integrin-binding peptides and R1.302 before and during the infection by the recombinant R8102 HSV-1 strain. This virion carries, indeed, a lacZ reporter gene under the control of the α27 promoter, whose expression analysis allows for readily quantifying the infectivity.[59] […] Remarkably, these preliminary results were in agreement with the known interchangeable and additive roles played by αvβ6 and αvβ8 integrins upon HSV-1 infection.[26]
Figure 3 Inhibition of HSV-1 infection. 293T cells were exposed to increasing concentrations of the indicated peptides for 1 h prior to infection and during virus attachment for another 90 min. Infection was induced using the recombinant R8102 HSV-1 strain and measured after 8 h as β-galactosidase activity, using o-nitrophenyl-D-galactopyranoside (ONPG) as a substrate. The assays were run in triplicate. Bars show standard deviation (SD).
The experiments were performed using 293T cells in 96-well plates with extracellular virions of R8102 at an input multiplicity of infection of 5 PFU/cell. Cells were exposed to increasing concentrations of the peptides for 1 h at 37 °C, and the viral inoculum was added in the presence of peptides for 90 min at 37 °C. After the removal of the inoculum and rinsing with DMEM containing 1% FBS, the cells were incubated without peptides for 8 h. The same protocol was followed for R1.302 mAb that was used as a positive control. The infection was quantified as β-Gal activity using o-nitrophenyl-D-galactopyranoside (ONPG) as a substrate.[86]

[4] = test system: recombinant K26GFP HSV-1 strain; test: Infection neutralization assay, transfected J cells, K26GFP HSV-1, EGFP expression; assay type: cell-based; conditions: all of the examined J cell samples, 700 μM
Source text: To this aim, we selected the J cells, which are negative for gD receptors and therefore cannot be infected by HSV-1 unless gD cognate receptors (i.e., nectin1) are transgenically expressed. […] In particular, J cells were transfected with low amounts of nectin1 plasmid, plus either αvβ6 or αvβ8 integrin plasmid or both, and then infected with the recombinant K26GFP HSV-1 strain. Indeed, the capsid protein ICP26 of this strain is fused to the green fluorescent protein (GFP),[60] whose cellular expression can be used to measure the viral infection. Thus, the K26GFP entry in J cells after compound treatment was evaluated using fluorescent microscopy (Figure 4A–T), and the enhanced green fluorescent protein (EGFP) expression was quantified using flow cytometry as the mean fluorescence intensity (MFI) of gated cells (Figure 4U). […] In parallel, we also evaluated the HSV infection in J cells expressing nectin1 plus either αvβ6 or αvβ8 alone.
J cells were transfected with a low amount (75 ng of DNA/24 well) of nectin1 alone (A–E), or with the same amount of nectin1 plus αvβ6 integrin (300 ng DNA/24 well) (F–J), or plus αvβ8 integrin (300 ng DNA/24 well) (K–O), or plus both the integrin receptors (P–T). […] The cells were infected with K26GFP. The nonpenetrated virus was inactivated by an acid wash. Infectivity was measured at 16 h after infection as EGFP expression. (A)–(T) panels show the EGFP expression in each sample for a typical experiment. (U) K26GFP infection was quantified as EGFP protein expression in the flow cytometry assay as the mean fluorescence intensity (MFI) of gated cells. Histograms represent the average of triplicates ± SD.
In other experiments, J cells were transfected with low amounts of plasmids encoding nectin1 (75 ng of DNA/24 well), plus or minus plasmids encoding αv + β6 or αv + β8 integrins (300 ng of DNA/24 well) or together by means of Lipofect 2000 (Life Technologies). The total amount of transfected plasmid DNA was made equal (675 ng/24 well) by the addition of Erb-2 plasmid DNA. […] Following infection, the unpenetrated virus was inactivated by means of an acid wash (40 mM citric acid, 10 mM KCl, 135 mM NaCl, pH 3),[87] and the cells were incubated for a further 16 h in the absence of the peptides or antibody. The extent of infection was assessed through EGFP expression.
Cytofluorimetric analyses were performed using an AccuriC6 flow cytometer (Becton Dickinson). A least 10 000 events were acquired for each sample. Microphotography of the inhibition experiment was conducted using a Nikon Eclipse Ni microscope.

Structure (SMILES) | IC50 [1] [nM] | IC50 [2] [nM] | effect on HSV-1 infection (in words) [3] | effect on HSV entry (in words) [4]
CN1C(=O)[C@H](CC(=O)O)NC(=O)CNC(=O)[C@H](CCCNC(=N)N)NC(=O)CC[C@@H](C(N)=O)NC(=O)[C@@H]1C1CCCCC1 [compound 5, [Arg-Gly-Asp-(NMe)Chg-Glu]-CONH2] | > 5000 | > 5000 | – | –
CN1CC(=O)N[C@@H](CC(=O)O)C(=O)N[C@@H](C2CCCCC2)C(=O)N[C@H](C(N)=O)CCC(=O)N[C@@H](CCCNC(=N)N)C1=O [compound 3, [Arg-(NMe)Gly-Asp-Chg-Glu]-CONH2] | 211 ± 26 | 3320 ± 122 | – | –
CN1C(=O)CC[C@@H](C(N)=O)NC(=O)[C@H](C2CCCCC2)NC(=O)[C@H](CC(=O)O)NC(=O)CNC(=O)[C@@H]1CCCNC(=N)N [compound 2, [(NMe)Arg-Gly-Asp-Chg-Glu]-CONH2] | 105 ± 8 | 2250 ± 89 | – | –
CC(C)[C@H]1C(=O)N[C@@H](CCCNC(=N)N)C(=O)NCC(=O)N[C@@H](CC(=O)O)C(=O)N[C@H](Cc2ccccc2)C(=O)N1C [cilengitide, reference compound] | – | – | no alteration in the HSV entry process | no effect
